# Assay results published in ChEMBL document CHEMBL1201862, “PubChem BioAssay data set” (2004).
#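 Cultured in 96-well plates, cells were exposed to test compound for 48 hours across five concentrations. GI50: concentration for 50% inhibition of growth.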 Active and inactive are the calls of the source. No stated cut-off is given here; in the data, active = GI50 up to about 1.1 µM and inactive = higher.
# Key:
# Experiment in all cases: growth of human tumour cells (NCI), 48 h
# HCC 2998 = system: HCC 2998
# DMS-114 = system: DMS-114
# SF-539 = system: SF-539
# SNB-19 = system: SNB-19
# UACC-257 = system: UACC-257
# NCI-H522 = system: NCI-H522
# ACHN = system: ACHN
# SW-620 = system: SW-620
# NCI-H460 = system: NCI-H460
# DMS-273 = system: DMS-273
# HOP-62 = system: HOP-62
# TK-10 = system: TK-10
# OVCAR-3 = system: OVCAR-3
# M14 = system: M14
# HL-60 = system: HL-60
# MOLT-4 = system: MOLT-4
# SF-295 = system: SF-295
# HCT-116 = system: HCT-116
# SR = system: SR
# IGROV-1 = system: IGROV-1
# HCT-15 = system: HCT-15
# SK-MEL-28 = system: SK-MEL-28
# Malme-3M = system: Malme-3M
# RPMI-8226 = system: RPMI-8226
# U-251 = system: U-251
# LOX IMVI = system: LOX IMVI
# K562 = system: K562
# NCI-H23 = system: NCI-H23
# KM12 = system: KM12
# COLO 205 = system: COLO 205
# SF-268 = system: SF-268
# SN12C = system: SN12C
# EKVX = system: EKVX
# KM-20L2 = system: KM-20L2
# M19-MEL = system: M19-MEL
# 786-0 = system: 786-0
# SK-OV-3 = system: SK-OV-3
# HT-29 = system: HT-29
# LXFL 529 = system: LXFL 529
# XF498 = system: XF498
# OVCAR-8 = system: OVCAR-8
# SK-MEL-5 = system: SK-MEL-5
# A549 = system: A549
# CCRF-CEM = system: CCRF-CEM
# NCI-H226 = system: NCI-H226
# HOP-92 = system: HOP-92
# A498 = system: A498
# RXF 393 = system: RXF 393
# HOP-18 = system: HOP-18
# UO-31 = system: UO-31
# DLD-1 = system: DLD-1
# UACC-62 = system: UACC-62
structure (smiles),measurement,setting,value
Oc1ccccc1/C=N/c1ccccc1/N=C/c1ccccc1O,GI50,HCC 2998,> 100 µM (inactive)
same,GI50,DMS-114,8.89 µM (inactive)
same,GI50,SF-539,71.3 µM (inactive)
same,GI50,SNB-19,34.4 µM (inactive)
same,GI50,UACC-257,38.7 µM (inactive)
same,GI50,NCI-H522,16.7 µM (inactive)
same,GI50,ACHN,30.2 µM (inactive)
same,GI50,SW-620,> 100 µM (inactive)
same,GI50,NCI-H460,62.8 µM (inactive)
same,GI50,DMS-273,85.9 µM (inactive)
same,GI50,HOP-62,> 100 µM (inactive)
same,GI50,TK-10,> 100 µM (inactive)
same,GI50,OVCAR-3,36.6 µM (inactive)
same,GI50,M14,> 100 µM (inactive)
same,GI50,HL-60,15 µM (inactive)
same,GI50,MOLT-4,16.1 µM (inactive)
same,GI50,SF-295,88.9 µM (inactive)
same,GI50,HCT-116,> 100 µM (inactive)
same,GI50,SR,19.5 µM (inactive)
same,GI50,IGROV-1,> 100 µM (inactive)
same,GI50,HCT-15,79.4 µM
same,GI50,SK-MEL-28,> 100 µM (inactive)
same,GI50,Malme-3M,> 100 µM (inactive)
same,GI50,RPMI-8226,62.7 µM (inactive)
same,GI50,U-251,30.9 µM (inactive)
same,GI50,LOX IMVI,> 100 µM (inactive)
same,GI50,K562,21.5 µM (inactive)
same,GI50,NCI-H23,38.3 µM (inactive)
same,GI50,KM12,> 100 µM (inactive)
same,GI50,COLO 205,> 100 µM (inactive)
same,GI50,SF-268,88.1 µM (inactive)
same,GI50,SN12C,> 100 µM (inactive)
same,GI50,EKVX,> 100 µM (inactive)
same,GI50,KM-20L2,> 100 µM (inactive)
same,GI50,M19-MEL,> 100 µM (inactive)
same,GI50,786-0,> 100 µM (inactive)
same,GI50,SK-OV-3,> 100 µM (inactive)
same,GI50,HT-29,> 100 µM (inactive)
same,GI50,LXFL 529,31.7 µM (inactive)
same,GI50,XF498,47.6 µM (inactive)
same,GI50,OVCAR-8,> 100 µM (inactive)
same,GI50,SK-MEL-5,86.1 µM (inactive)
same,GI50,A549,> 100 µM (inactive)
same,GI50,CCRF-CEM,8.3 µM (inactive)
same,GI50,NCI-H226,65.6 µM (inactive)
Cn1nc(-c2ccccc2)c(C(=O)/C=C/c2ccccc2)c(N2CCOCC2)c1=O,GI50,HOP-92,5.06 µM (inactive)
same,GI50,DMS-114,16.8 µM (inactive)
same,GI50,SF-539,15.9 µM (inactive)
same,GI50,SNB-19,> 10 µM (inactive)
same,GI50,A498,15.4 µM (inactive)
same,GI50,NCI-H522,12.9 µM (inactive)
same,GI50,ACHN,20 µM (inactive)
same,GI50,SW-620,28.9 µM (inactive)
same,GI50,NCI-H460,22.9 µM (inactive)
same,GI50,DMS-273,19.8 µM (inactive)
same,GI50,RXF 393,12.6 µM (inactive)
same,GI50,HOP-62,37.2 µM (inactive)
same,GI50,HOP-18,28.6 µM (inactive)
same,GI50,TK-10,32.8 µM (inactive)
same,GI50,M14,20.9 µM (inactive)
same,GI50,HL-60,12.8 µM (inactive)
same,GI50,MOLT-4,13.2 µM (inactive)
same,GI50,HCT-116,14.4 µM (inactive)
same,GI50,IGROV-1,23.4 µM (inactive)
same,GI50,HCT-15,16.7 µM
same,GI50,SK-MEL-28,> 10 µM (inactive)
same,GI50,RPMI-8226,14.6 µM (inactive)
same,GI50,U-251,15.4 µM (inactive)
same,GI50,LOX IMVI,21.6 µM (inactive)
same,GI50,UO-31,14.9 µM (inactive)
same,GI50,K562,17.9 µM (inactive)
same,GI50,NCI-H23,16.4 µM (inactive)
same,GI50,COLO 205,19.5 µM (inactive)
same,GI50,SF-268,16.9 µM (inactive)
same,GI50,SN12C,21.4 µM (inactive)
same,GI50,EKVX,> 10 µM (inactive)
same,GI50,KM-20L2,18.1 µM (inactive)
same,GI50,M19-MEL,23.1 µM (inactive)
same,GI50,786-0,14.2 µM (inactive)
same,GI50,SK-OV-3,27.6 µM (inactive)
same,GI50,HT-29,17.7 µM (inactive)
same,GI50,DLD-1,20.4 µM (inactive)
same,GI50,LXFL 529,16 µM (inactive)
same,GI50,XF498,12.7 µM (inactive)
same,GI50,OVCAR-8,28.4 µM (inactive)
same,GI50,SK-MEL-5,16 µM (inactive)
same,GI50,A549,20.3 µM (inactive)
same,GI50,CCRF-CEM,18.8 µM (inactive)
same,GI50,UACC-62,19.8 µM (inactive)
